Data published in patent US20260263651A1, “WOUND DRESSING” (UNIVERSITY OF SUNDERLAND, priority 2023, published 2026).
“Also recorded” adds a separate entry of the source.

Legend:
Assay type in all cases: cell-based
Staphylococcus aureus = test: Microbiological evaluation of overnight bacteria suspensions, modified alginate wound dressing with absorbed substrate on agar; settings: SA overnight culture, 24 h incubation at 37° C.
Description: (§1) ACTIVHEAL® simply A (10×20 cm) non-adhesive foam samples were provided by Advanced Medical Solutions Ltd. The wound dressings were cut into ~5-10×5-10 mm squares, using an ethanol washed pair of scissors. A maximum of 0.20 g of the material was added into 10 mL DI water, and the pH was adjusted to ~3 by the addition of 0.1 M aq. HCl solution. The solution was stirred for 10 mins at room temperature, followed by the addition of 0.33 g EDC •HCl (1.7 mmol) and the pH was maintained at ~3 by the addition of 0.1 M aq. HCl solution. The solution was stirred at room temperature for 10 mins followed by the addition of 0.88 g compound 8 which was dissolved in DMSO or DMF. The mixture was stirred at room temperature for 48 h. The wound dressings were filtered and were washed with ethanol. To ensure the full removal of any non-coupled amide (8), the foam samples were resuspended in ethanol, stirred for 10 mins and filtered, and this process was repeated until the amide (8) was not detectable from the filtrate (this could be maintained by TLC or HPLC evaluation). The samples were dried in a vacuum oven for 3-4 h.
(§2) The aqueous solution of 3a or 3b was prepared by the following: the desired amount of the enzymatic substrate (3.0 mg for 300 mg/L, 6.0 mg for 600 mg/L, 9.0 mg for 900 mg/L, 15.0 mg for 1500 mg/L, and 30.0 mg for 3000 mg/L) was weighed out on a 4 decimal place balance within ±0.3 mg error limit into a 10 mL volumetric flask and was adjusted to 10.0 mL with DI water. The solutions were absorbed into the foam samples and dried in a vacuum oven at 40° C. overnight.
(§3) To model fluid exudate from a chronic wound, the wound dressing made according to ‘Modification of ActivHeal® Alginate’, above, was placed into an agar plate and the test pathogen was smeared over the surface of the agar.
(§4) The enzymatic substrates were tested in 4 different concentrations (300, 600, 900 and 3000 mg/L) using DI water as a solvent, and the solutions were absorbed into the wound dressing samples, which were dried overnight under vacuum at 40° C.
(§5) Two Gram negative strains (Escherichia coli—EC and Pseudomonas aeruginosa—PSA) and a Gram positive bacteria (Staphylococcus aureus—SA) were evaluated against the dimethyl (3a) and the diethyl (3b) substituted substrate. The overnight cultures were directly smeared from LB broth onto Columbia blood agar without measuring the OD. The wound dressings with the enzymatic substrate absorbed were placed onto the agar and were incubated overnight (see FIGS. 2-7).

Escherichia coli [1] = test: as above; settings: for Observable colour change: EC overnight culture, 24 h incubation at 37° C.
Description: as §1, §2, §3, §4, §5

Pseudomonas aeruginosa = test: as above; settings: PSA overnight culture, 24 h incubation at 37° C.
Description: as §1, §2, §3, §4, §5

Escherichia coli [2] = test: Microbiological evaluation of standardised bacterial suspensions, modified wound dressing with absorbed substrate on agar; parameters: key to Observable colour change: − indicates no colour change; +− indicates relatively discernible blue colour change; + indicates a moderately strong blue colour change; ++ indicates a strong blue colour change
Description: as §1, §2
Bacterial strains were routinely cultured from working stocks in Tryptic Soy Broth (TSB) and incubated at 37° C. overnight with shaking at 150 RPM. Overnight cultures were centrifuged at 3000×g for 5 minutes, the supernatant discarded, and the pellet resuspended in 10 mL phosphate buffered saline (PBS). Bacterial inoculums were standardised by optical density at 600 nm on an Amersham Biosciences Ultrospec 10 spectrophotometer (Amersham Biosciences, Amersham, UK) to contain between 1 and 3×10^8 CFU/mL.
However, rapid evaluation of lower bacteria concentrations is essential for the desired clinical application. Three different solutions (300, 600 and 1500 mg/L) were prepared from the substrates 3a and 3b in micro filtered DI water as a solvent. The solutions were absorbed into the wound dressing samples, which were dried overnight under vacuum at 40° C.
Two Gram negative strains (Escherichia coli—EC and Pseudomonas aeruginosa—PSA) and a Gram-positive bacterium (Staphylococcus aureus—SA) were evaluated. The bacteria were incubated overnight, centrifuged at 3000×g for 5 mins, the supernatant was discarded, and the residue pellets were resuspended in 10 mL PBS. The inoculums were standardised by measuring the optical density at 600 nm to assure a 1-3×10^8 CFU/mL. The standardised solutions were further diluted to prepare 1-3×10^6 and 1-3×10^4 CFU/mL suspension. 1×10^6 CFU would be an ideal breakpoint for a positive result, as this concentration coincides well with a level of colonisation that would likely go on to produce an infection.
100 μL bacterial suspensions were smeared over agar plates. Wound dressing samples were added to the top of the agar and were rolled over a few times (to ensure a full coverage and to ease the visibility of the colour change). The plates were incubated at 37° C., and the results were recorded after 24 h, after 48 h, after 72 h. The results are shown in Table 3-5; − indicates no colour change, +− indicates relatively discernible blue colour change, + indicates a moderately strong blue colour change and ++ indicates a strong blue colour change.

[3] = EC 10^4, substrate 300 mg/L, 24 h at 37° C.
[4] = EC 10^4, substrate 300 mg/L, 48 h at 37° C.
[5] = EC 10^4, substrate 300 mg/L, 72 h at 37° C.
[6] = EC 10^4, substrate 900 mg/L, 24 h at 37° C.
[7] = EC 10^4, substrate 900 mg/L, 48 h at 37° C.
[8] = EC 10^4, substrate 900 mg/L, 72 h at 37° C.
[9] = EC 10^4, substrate 1500 mg/L, 24 h at 37° C.
[10] = EC 10^4, substrate 1500 mg/L, 48 h at 37° C.
[11] = EC 10^4, substrate 1500 mg/L, 72 h at 37° C.
[12] = EC 10^6, substrate 300 mg/L, 24 h at 37° C.
[13] = EC 10^6, substrate 300 mg/L, 48 h at 37° C.
[14] = EC 10^6, substrate 300 mg/L, 72 h at 37° C.
[15] = EC 10^6, substrate 900 mg/L, 24 h at 37° C.
[16] = EC 10^6, substrate 900 mg/L, 48 h at 37° C.
[17] = EC 10^6, substrate 900 mg/L, 72 h at 37° C.
[18] = EC 10^6, substrate 1500 mg/L, 24 h at 37° C.
[19] = EC 10^6, substrate 1500 mg/L, 48 h at 37° C.
[20] = EC 10^6, substrate 1500 mg/L, 72 h at 37° C.
[21] = EC 10^8, 10^6 or 10^4 CFU, after 72 h, every tested substrate concentration
[22] = EC 10^8, substrate 300 mg/L, 24 h at 37° C.
[23] = EC 10^8, substrate 300 mg/L, 48 h at 37° C.
[24] = EC 10^8, substrate 300 mg/L, 72 h at 37° C.
[25] = EC 10^8, substrate 900 mg/L, 24 h at 37° C.
[26] = EC 10^8, substrate 900 mg/L, 48 h at 37° C.
[27] = EC 10^8, substrate 900 mg/L, 72 h at 37° C.
[28] = EC 10^8, substrate 1500 mg/L, 24 h at 37° C.
[29] = EC 10^8, substrate 1500 mg/L, 48 h at 37° C.
[30] = EC 10^8, substrate 1500 mg/L, 72 h at 37° C.
[31] = substrate 300 mg/L, hydrochloride

## CC(C)C[C@H](N)C(=O)Nc1ccc(N(C)C)cc1.Cl [3a, (2S)-2-amino-N-[4-(dimethylamino)phenyl]-4-methyl-pentanamide hydrochloride]
Staphylococcus aureus; substrate 300 mg/L
  Observable colour change: None
Staphylococcus aureus; substrate 600 mg/L
  Observable colour change: Pale blue
Staphylococcus aureus; substrate 900 mg/L
  Observable colour change: None
Staphylococcus aureus; substrate 3000 mg/L
  Observable colour change: Light blue
Escherichia coli [1]; substrate 300 mg/L
  Observable colour change: Light blue
Escherichia coli [1]; substrate 600 mg/L
  Observable colour change: Light blue
Escherichia coli [1]; substrate 900 mg/L
  Observable colour change: Blue
Escherichia coli [1]; substrate 3000 mg/L
  Observable colour change: Dark blue
Pseudomonas aeruginosa; substrate 300 mg/L
  Observable colour change: None
Pseudomonas aeruginosa; substrate 600 mg/L
  Observable colour change: Light blue
Pseudomonas aeruginosa; substrate 900 mg/L
  Observable colour change: Blue
Pseudomonas aeruginosa; substrate 3000 mg/L
  Observable colour change: Blue
Escherichia coli [2]; [3]
  Observable colour change: −
Escherichia coli [2]; [4]
  Observable colour change: −
Escherichia coli [2]; [5]
  Observable colour change: −
Escherichia coli [2]; [6]
  Observable colour change: −
Escherichia coli [2]; [7]
  Observable colour change: −
Escherichia coli [2]; [8]
  Observable colour change: +
Escherichia coli [2]; [9]
  Observable colour change: −
Escherichia coli [2]; [10]
  Observable colour change: +−
Escherichia coli [2]; [11]
  Observable colour change: +
Escherichia coli [2]; [12]
  Observable colour change: −
Escherichia coli [2]; [13]
  Observable colour change: +−
Escherichia coli [2]; [14]
  Observable colour change: +
Escherichia coli [2]; [15]
  Observable colour change: −
Escherichia coli [2]; [16]
  Observable colour change: +−
Escherichia coli [2]; [17]
  Observable colour change: +
Escherichia coli [2]; [18]
  Observable colour change: +−
Escherichia coli [2]; [19]
  Observable colour change: +
Escherichia coli [2]; [20]
  Observable colour change: ++
Escherichia coli [2]; [21]
  colour change: moderate or strong blue colour changes
Escherichia coli [2]; [22]
  Observable colour change: +−
Escherichia coli [2]; [23]
  Observable colour change: +
Escherichia coli [2]; [24]
  Observable colour change: ++
Escherichia coli [2]; [25]
  Observable colour change: +−
Escherichia coli [2]; [26]
  Observable colour change: +
Escherichia coli [2]; [27]
  Observable colour change: ++
Escherichia coli [2]; [28]
  Observable colour change: +−
Escherichia coli [2]; [29]
  Observable colour change: +
Escherichia coli [2]; [30]
  Observable colour change: ++
Escherichia coli [2]; EC, substrate 900 or 1500 mg/L, printed in the 48 h paragraph
  colour change: moderate or strong colour change

## CCN(CC)c1ccc(NC(=O)[C@@H](N)CC(C)C)cc1.Cl [3b, (2S)-2-amino-N-[4-(diethylamino)phenyl]-4-methyl-pentanamide hydrochloride]
Staphylococcus aureus; substrate 300 mg/L
  Observable colour change: None
Staphylococcus aureus; substrate 600 mg/L
  Observable colour change: None
Staphylococcus aureus; substrate 900 mg/L
  Observable colour change: None
Staphylococcus aureus; substrate 3000 mg/L, hydrochloride
  Observable colour change: produced the colour change and Blue
Escherichia coli [1]; [31]
  Observable colour change: blue colour changes; also recorded: Light blue
Escherichia coli [1]; substrate 600 mg/L
  Observable colour change: Light blue
Escherichia coli [1]; substrate 900 mg/L
  Observable colour change: Dark blue
Escherichia coli [1]; substrate 3000 mg/L
  Observable colour change: Dark blue
Escherichia coli [1]; overnight cultures (EC, PSA, SA), overall comparison of Table 2
  colour change strength compared with the dimethyl analogue: stronger colour changes than the dimethyl analogue (3a)
Pseudomonas aeruginosa; [31]
  Observable colour change: blue colour changes; also recorded: Light blue
Pseudomonas aeruginosa; substrate 600 mg/L
  Observable colour change: Light blue
Pseudomonas aeruginosa; substrate 900 mg/L
  Observable colour change: Blue
Pseudomonas aeruginosa; substrate 3000 mg/L
  Observable colour change: Dark blue
Escherichia coli [2]; [3]
  Observable colour change: −
Escherichia coli [2]; [4]
  Observable colour change: +
Escherichia coli [2]; [5]
  Observable colour change: +
Escherichia coli [2]; [6]
  Observable colour change: −
Escherichia coli [2]; [7]
  Observable colour change: +
Escherichia coli [2]; [8]
  Observable colour change: ++
Escherichia coli [2]; [9]
  Observable colour change: −
Escherichia coli [2]; [10]
  Observable colour change: +
Escherichia coli [2]; [11]
  Observable colour change: ++
Escherichia coli [2]; [12]
  Observable colour change: −
Escherichia coli [2]; [13]
  Observable colour change: +
Escherichia coli [2]; [14]
  Observable colour change: +
Escherichia coli [2]; [15]
  Observable colour change: −
Escherichia coli [2]; [16]
  Observable colour change: +
Escherichia coli [2]; [17]
  Observable colour change: ++
Escherichia coli [2]; [18]
  Observable colour change: +−
Escherichia coli [2]; [19]
  Observable colour change: +
Escherichia coli [2]; [20]
  Observable colour change: ++
Escherichia coli [2]; EC 10^6 CFU and 10^4 CFU, after 48 h incubation
  colour change: moderate colour change
Escherichia coli [2]; [21]
  colour change: moderate or strong blue colour changes
Escherichia coli [2]; [22]
  Observable colour change: +−
Escherichia coli [2]; [23]
  Observable colour change: +
Escherichia coli [2]; [24]
  Observable colour change: +
Escherichia coli [2]; [25]
  Observable colour change: +−
Escherichia coli [2]; [26]
  Observable colour change: ++
Escherichia coli [2]; [27]
  Observable colour change: ++
Escherichia coli [2]; [28]
  Observable colour change: +−
Escherichia coli [2]; [29]
  Observable colour change: ++
Escherichia coli [2]; [30]
  Observable colour change: ++
Escherichia coli [2]; EC 10^8 CFU, 10^6 CFU, and 104 CFU, substrate 900 mg/L, printed in the 48 h paragraph
  colour change: strong blue colour changes
Escherichia coli [2]; EC 10^8 CFU, after 48 h incubation, substrate 900 or 1500 mg/L
  colour change: strong blue colour changes
